Measured values: patent US20080125432A1 (Devgen NV, priority 2004, published 2008)
Where two headings read alike, the source gives them in different places.

Molecular target: T1, human Kv4.3/KChIP2.2 potassium channel (Homo sapiens, UniProt Q9UK17)
T1 construct: expressed in transfected cells
T1 sequence (Q9UK17 1-655): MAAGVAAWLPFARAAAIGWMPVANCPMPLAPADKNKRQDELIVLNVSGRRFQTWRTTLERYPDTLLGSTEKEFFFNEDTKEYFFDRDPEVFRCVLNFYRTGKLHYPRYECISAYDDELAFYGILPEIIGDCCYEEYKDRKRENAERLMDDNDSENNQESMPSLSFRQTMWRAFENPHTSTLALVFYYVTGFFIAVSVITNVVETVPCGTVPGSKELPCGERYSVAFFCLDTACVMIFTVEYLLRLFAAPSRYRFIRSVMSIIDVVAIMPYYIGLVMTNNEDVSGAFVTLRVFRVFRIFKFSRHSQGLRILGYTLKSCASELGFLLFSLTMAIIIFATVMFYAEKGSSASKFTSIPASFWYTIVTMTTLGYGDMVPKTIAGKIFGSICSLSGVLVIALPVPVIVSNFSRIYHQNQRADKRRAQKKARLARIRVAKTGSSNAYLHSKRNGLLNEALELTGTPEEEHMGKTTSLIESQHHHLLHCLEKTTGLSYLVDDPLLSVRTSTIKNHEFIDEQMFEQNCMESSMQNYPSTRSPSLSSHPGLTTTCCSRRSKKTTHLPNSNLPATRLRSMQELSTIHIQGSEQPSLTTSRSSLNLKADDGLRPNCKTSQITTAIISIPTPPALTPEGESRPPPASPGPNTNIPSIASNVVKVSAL
Assay: Whole cell patch clamp, CHO-K1 cells stably expressing human Kv4.3/KChIP2.2
Assay type: cell-based
Conditions: for remaining activity at 1 µM: CHO-K1

[1] = remaining current measured after application of the compound and relative to the blank, read-out: Kv4.3 charge in %
[2] = remaining peak height measured after application of the compound and relative to the blank, read-out: Kv4.3 peak in %
[3] = estimated by Hill fit with hill=1, ymax=100, tested at 2 μM, n=2, read-out: IC50 (μM) Kv4.3
[4] = Kv4.3 mediated current, charge, patch clamp, read-out: Kv4.3 charge IC50

| Molecule | remaining activity at 1 µM [1] | remaining activity at 1 µM [2] | IC50 [3] | IC50 [4] |
| --- | --- | --- | --- | --- |
| Cc1nc(Nc2ccc(Cl)cc2)sc1C(=O)N[C@@H](C)c1ccc2ccccc2c1 [Compound 54, 2-(4-chloro-phenylamino)-4-methyl-thiazole-5-carboxylic acid (S)-1-(2-naphtalen-2-yl-ethyl)-amide] |  |  | 2.41 µM | 2.41 µM |
| Cc1nc(Nc2ccc(Br)cc2)sc1C(=O)NCc1ccc(F)c(C(F)(F)F)c1 [Compound 63, 2-(4-bromo-phenylamino)-4-methyl-thiazole-5-carboxylic acid 4-fluoro-3-trifluoromethyl-benzylamide] |  |  | 0.16 µM |  |
| COc1ccccc1Nc1nc(C)c(C(=O)N[C@@H](C)c2ccc3ccccc3c2)s1 [Compound 55, 2-(2-methoxy-phenylamino)-4-methyl-thiazole-5-carboxylic acid (S)-1-(2-naphtalen-2-yl-ethyl)-amide] |  |  | 2.02 µM |  |
| Cc1nc(Nc2ccc(Cl)cc2)sc1C(=O)N[C@@H]1CCC[C@H]1OCc1ccccc1 [Compound 30, 2-(4-chloro-phenylamino)-4-methyl-thiazole-5-carboxylic acid (1R,2R)-2-(benzyloxycyclopent-1-yl) amide] |  |  | 1.25 µM | 1.25 µM |
| COc1ccc(CNC(=O)c2sc(Nc3ccc(Br)cc3)nc2C)cc1 [Compound 60, 2-(4-bromo-phenylamino)-4-methyl-thiazole-5-carboxylic acid 4-methoxy-benzylamide] |  |  | 0.39 µM |  |
| Cc1nc(Nc2ccc(Br)cc2)sc1C(=O)N[C@H](C)c1ccc2ccccc2c1 [Compound 19, 2-(4-bromo-phenylamino)-4-methyl-thiazole-5-carboxylic acid (R)-1-(naphthalen-2-yl)ethyl amide] |  |  | 2.72 µM |  |
| Cc1nc(Nc2ccc(Br)cc2)sc1C(=O)NCc1cccc2ccccc12 [Compound 56, 2-(4-bromo-phenylamino)-4-methyl-thiazole-5-carboxylic acid (naphtalen-1-yl-methyl)-amide] |  |  | 1.07 µM | 1.07 µM |
| COc1cccc([C@@H](C)NC(=O)c2sc(Nc3cc(Cl)ccc3OC)nc2C)c1 [Compound 34] |  |  | 1.62 µM |  |
| Cc1nc(Nc2ccc(F)cc2)sc1C(=O)N[C@H](C)c1ccc2ccccc2c1 [Compound 16, 2-(4-fluoro-phenylamino)-4-methyl-thiazole-5-carboxylic acid (R)-1-(naphthalen-2-yl)ethyl amide] |  |  | 1.84 µM |  |
| Cc1nc(Nc2ccc(Cl)cc2)sc1C(=O)N[C@H](C)c1ccc2ccccc2c1 [Compound 52, 2-(4-chloro-phenylamino)-4-methyl-thiazole-5-carboxylic acid (R)-1-(2-naphtalen-2-yl-ethyl)-amide] |  |  | 0.34 µM | 0.34 µM |
| COc1ccccc1Nc1nc(C)c(C(=O)N[C@@H]2CCC[C@H]2OCc2ccccc2)s1 [Compound 31, 2-(2-methoxy-phenylamino)-4-methyl-thiazole-5-carboxylic acid (1R,2R)-2-(benzyloxycyclopent-1-yl) amide] |  |  | 2.91 µM |  |
| COc1ccc(OC)c(Nc2nc(C)c(C(=O)N[C@@H]3CCC[C@H]3OCc3ccccc3)s2)c1 [Compound 33, 2-(2,5-dimethoxyphenylamino)-4-methylthiazole-5-carboxylic acid (1R,2R)-2-(benzyloxycyclopent-1-yl) amide] |  |  | 3.35 µM |  |
| Cc1nc(Nc2ccc(Br)cc2)sc1C(=O)N[C@@H](C)c1ccc2ccccc2c1 [Compound 18, 2-(4-bromo-phenylamino)-4-methyl-thiazole-5-carboxylic acid (S)-1-(naphthalen-2-yl)ethyl amide] |  |  | 3.85 µM |  |
| Cc1nc(Nc2ccc(Br)cc2)sc1C(=O)NCc1ccc(N(C)C)cc1 [Compound 64, 2-(4-bromo-phenylamino)-4-methyl-thiazole-5-carboxylic acid 4-dimethylamino-benzylamide] |  |  | 0.83 µM |  |

Now from value to molecule:

| remaining activity at 1 µM [1] | remaining activity at 1 µM [2] | IC50 [3] | IC50 [4] | Molecule |
| --- | --- | --- | --- | --- |
| 61% | 91% |  |  | Cc1nc(Nc2ccc3c(c2)OCCO3)sc1C(=O)N[C@H]1CCC[C@@H]1OCc1ccccc1 [Compound 95] |
| 61% | 77% |  |  | COc1ccccc1Nc1nc(C)c(C(=O)NCc2ccc(N(C)C)cc2)s1 [Compound 105, 2-(2-methoxy-phenylamino)-4-methyl-thiazole-5-carboxylic acid 4-dimethylamino-benzylamide] |
|  |  | 0.54 µM |  | COc1ccccc1Nc1nc(C)c(C(=O)N[C@H]2CCC[C@@H]2OCc2ccccc2)s1 [Compound 68, 2-(2-methoxy-phenylamino)-4-methyl-thiazole-5-carboxylic acid (1S,2S)-2-(benzyloxycyclopent-1-yl) amide] |
| 77% | 93% |  |  | COc1ccccc1Nc1nc(C)c(C(=O)NCc2ccc3c(c2)CCO3)s1 [Compound 104, 2-(2-methoxy-phenylamino)-4-methyl-thiazole-5-carboxylic acid (2,3-dihydro-benzofuran-5-ylmethyl)-amide] |
| 49% | 89% |  |  | Cc1nc(Nc2cccc3cccnc23)sc1C(=O)N[C@H]1CCC[C@@H]1OCc1ccccc1 [Compound 94, 4-methyl-2-(quinolin-8-ylamino)-thiazole-5-carboxylic acid ((1S,2S)-2-benzyloxycyclopent-1-yl) amide] |
|  |  | 0.18 µM |  | COc1cc(CNC(=O)c2sc(Nc3ccc(Br)cc3)nc2C)cc(OC)c1 [Compound 65, 2-(4-bromo-phenylamino)-4-methyl-thiazole-5-carboxylic acid 3,5-dimethoxy-benzylamide] |
| 62% | 99% |  |  | COc1ccccc1Nc1nccc(C(=O)N[C@H]2CCC[C@@H]2OCc2ccccc2)n1 [Compound 76, 2-(2-methoxy-phenylamino)-pyrimidine-4-carboxylic acid ((1S,2S)-2-benzyloxycyclopent-1-yl) amide] |
| 51% | 90% |  |  | Cc1nc(Sc2ccccc2)sc1C(=O)N[C@H]1CCC[C@@H]1OCc1ccccc1 [Compound 81, 4-methyl-2-phenylsulfanyl-thiazole-5-carboxylic acid ((1S,2S)-2-benzyloxycyclopent-1-yl) amide] |
| 66% | 96% |  |  | COc1ccccc1Nc1nc(C)c(C(=O)NCc2ccccc2SC)s1 [Compound 97] |
| 58% | 89% |  |  | Cc1nc(Nc2ccc3occc3c2)sc1C(=O)N[C@H]1CCC[C@@H]1OCc1ccccc1 [Compound 126, 2-(benzofuran-5-ylamino)-4-methyl-thiazole-5-carboxylic acid ((1S,2S)-2-benzyloxycyclopent-1-yl) amide] |
| 58% | 98% |  |  | COc1ccccc1Nc1nc(C)c(C(=O)NCc2ccc(C(C)(C)C)cc2)s1 [Compound 106, 2-(2-methoxy-phenylamino)-4-methyl-thiazole-5-carboxylic acid 4-tert-butyl-benzylamide] |
| 62% | 89% |  |  | Cc1nc(Nc2cccc3ccccc23)sc1C(=O)N[C@H]1CCC[C@@H]1OCc1ccccc1 [Compound 93] |
| 73% | 97% |  |  | Cc1nc(NC(=O)c2ccc(C(C)(C)C)cc2)sc1C(=O)N[C@H]1CCC[C@@H]1OCc1ccccc1 [Compound 180, 2-(4-tert-butyl-benzoylamino)-4-methyl-thiazole-5-carboxylic acid ((1S,2S)-2-benzyloxycyclopent-1-yl) amide] |
|  |  | 0.34 µM | 0.34 µM | 2-(4-bromo-phenylamino)-4-methyl-thiazole-5-carboxylic acid 1,2,3,4-tetrahydroisoquinolinamide [Compound 66] |
| 41% | 81% |  |  | COc1ccccc1Nc1ccc(C(=O)N[C@H]2CCC[C@@H]2OCc2ccccc2)s1 [Compound 75, 2-(2-methoxy-phenylamino)-thiophene-5-carboxylic acid ((1S,2S)-2-benzyloxycyclopent-1-yl) amide] |
| 59% | 82% |  |  | COc1ccccc1Nc1nc(C)c(C(=O)NCc2ccc(Br)cc2)s1 [Compound 108, 2-(2-methoxy-phenylamino)-4-methyl-thiazole-5-carboxylic acid 4-bromo-benzylamide] |
| 59% | 90% |  |  | COc1ccccc1Nc1nc(C)c(C(=O)NCc2c(C)cccc2Cl)s1 [Compound 98, 2-(2-methoxy-phenylamino)-4-methyl-thiazole-5-carboxylic acid 2-chloro-6-methyl-benzylamide] |
